The source of these data is patent US6268533A, “Formoterol process” (Sepracor Inc., priority 2000, dated 2001).

One data set deals with β-adrenoceptors. The note with it: four isomers, in vitro; cited from earlier work.
For a further data set, the system named is guinea pig trachea. The note with it: four isomers compared; cited from earlier work.
The nature of data set [1]: total impurities of crystal forms after heating. In kind it is physicochemical. The note with it: for decomposition (total impurities study): 175° C. From the text:
The two crystal forms of (R,R)-formoterol tartrate were also studied by measuring the total impurities in the material from each of the experiments in Table 6.

A short description of data set [2]: thermal stability of crystal forms, loss on drying by TGA. In kind it is physicochemical. The note with it: for % LOD by TGA: held 15 min. The procedure: In each experiment, the polymorph was warmed from 30° C. to the designated temperature at 10° C./min and held at the designated temperature for 15 minutes. The loss on drying (LOD) was measured, and the appearance of the material was noted.

A short description of data set [3]: moisture sorption of salts, water content by Karl Fischer titration. The note with it: for moisture sorption compared with other salts or forms (in words): comparison of salts/polymorphs of R,R-formoterol; for water content (moisture sorption): room temperature. The format is physicochemical. How it is done: Water absorption is a major problem in formulating a medicament for therapeutic use, and therefore a salt that has minimal water absorption offers significant advantages. In a series of experiments various salts of R,R-formoterol were prepared.
The salts were exposed to varying levels of humidity at room temperature for 1 to 28 days, and the samples were analyzed for water content by Karl Fischer titration. The values are given in % w/w.

Data set [4] can be described thus: appearance of sample after TGA. The format is physicochemical. The procedure:
In each experiment, the polymorph was warmed from 30° C. to the designated temperature at 10° C./min and held at the designated temperature for 15 minutes. The loss on drying (LOD) was measured, and the appearance of the material was noted. […] The differences in appearance of each crystal form at the designated temperatures were consistent with the changes in LODs.

Data set [5] is described as follows: stability of formoterol salts in the presence of lactose and water. In kind it is physicochemical. The text has this:
Alternatively, if lactose is to be used, as described below, the dry powder must be packaged in such a manner as to exclude moisture.

In data set [6] the test system is β2 -selective adrenoceptor. The note with it: inhaled; background statement; cited from earlier work.
[7] abbreviates: 85% RH (printed RE for the fumarate).

Where a name gives a salt, the structure may show the parent alone.

Take `COc1ccc(C[C@H](C)NC[C@@H](O)c2ccc(O)c(NC=O)c2)cc1` [(S,S)]: the order of potency entry with β-adrenoceptors is “(R,R)>>(R,S)=(S,R)>(S,S)”.

For `COc1ccc(C[C@@H](C)NC[C@H](O)c2ccc(O)c(NC=O)c2)cc1` [(R,R)-isomer], in the data set on guinea pig trachea, the “relaxing activity, rank of potency” value was “most potent”. Moreover, the order of potency result with β-adrenoceptors is “(R,R)>>(R,S)=(S,R)>(S,S)”.

In the case of `COc1ccc(C[C@@H](C)NC[C@@H](O)c2ccc(O)c(NC=O)c2)cc1` [(S,R), reference compound], the order of potency result with β-adrenoceptors is listed as “(R,R)>>(R,S)=(S,R)>(S,S)”.

In the case of `COc1ccc(C[C@@H](C)NC[C@H](O)c2ccc(O)c(NC=O)c2)cc1` [P1], the “decomposition (total impurities study)” value in data set [1] is “nearly completely decomposed”. Also, the “% LOD by TGA” value in data set [2] (75° C.) stood at 0.092%; in data set [2] (100° C.), 0.065%; in data set [2] (125° C.), 0.230%; in data set [2] (150° C.), 0.390%; in data set [2] (175° C.), 10.805%. The LOD in words result in data set [2] (175° C.) is listed as “significant LODs, the result of decomposition”. The water absorbed entry in data set [3] (85% RH for 11 days) is on record as “less than 0.1%”. Besides, the “moisture sorption compared with other salts or forms (in words)” value in data set [3] is recorded as “equivalent in moisture sorption”. The “appearance of sample after TGA” value in data set [4] (75° C.) is “white”; in data set [4] (100° C.), “white”; in data set [4] (125° C.), “white”; in data set [4] (150° C.), “off-white”; in data set [4] (175° C.) it was “brown”.

Consider `COc1ccc(C[C@@H](C)NC[C@H](O)c2ccc(O)c(NC=O)c2)cc1` (relative stereo) [racemic (R,R/S,S) formoterol hemifumarate hydrate], for which the “incompatibility with lactose on encountering moisture” value in data set [5] is “not observed”.

For the compound `COc1ccc(C[C@@H](C)NC[C@H](O)c2ccc(O)c(NC=O)c2)cc1` [P2], the “total impurities compared with P1” value in data set [1] (100° C. and higher) is “higher levels of total impurities”. In data set [1], the “decomposition (total impurities study)” value is on record as “nearly completely decomposed”. Moreover, the “% LOD by TGA” value in data set [2] (75° C.) came to 0.020%; in data set [2] (100° C.), 0.045%; in data set [2] (125° C.) it was 0.305%; in data set [2] (150° C.), 1.230%; in data set [2] (175° C.) it was 12.990%. The LOD in words result in data set [2] (175° C.) is “significant LODs, the result of decomposition”. In data set [3] (85% RH for 11 days), the water absorbed entry is recorded as “less than 0.1%”. For the same compound, the “moisture sorption compared with other salts or forms (in words)” value in data set [3] is listed as “equivalent in moisture sorption”. Moreover, the “appearance of sample after TGA” value in data set [4] (75° C.) is on record as “white”; in data set [4] (100° C.) it was “white”; in data set [4] (125° C.) it was “off-white”; in data set [4] (150° C.), “tan”; in data set [4] (175° C.) it was “brown”.

With `COc1ccc(C[C@@H](C)NC[C@H](O)c2ccc(O)c(NC=O)c2)cc1` [fumarate], the water absorbed in data set [3] (setting [7]) is given as 6%. The “moisture sorption compared with other salts or forms (in words)” value in data set [3] is reported as “somewhat better at 43% RE”.

As to `COc1ccc(C[C@@H](C)NC[C@H](O)c2ccc(O)c(NC=O)c2)cc1` (relative stereo) [Formoterol, (+/-) N-[2-hydroxy-5-[1-hydroxy-2[[2-(p-methoxyphenyl)-2-propyl]amino]ethyl]phenyl]-formamide], in data set [6], the bronchodilating effect entry is given as “long lasting bronchodilating effect”.

In the case of `COc1ccc(C[C@@H](C)NC[C@H](O)c2ccc(O)c(NC=O)c2)cc1` [R,R-formoterol L-tartrate], in data set [3], the hygroscopicity result is listed as “non-hygroscopic”. Moreover, the “water content (moisture sorption)” value in data set [3] (11% relative humidity, day 1) came to 0.0956 % w/w; in data set [3] (11% relative humidity, day 3), 0.1062 % w/w; in data set [3] (11% relative humidity, day 8), 0.0842 % w/w; in data set [3] (11% relative humidity, day 14), 0.1377 % w/w; in data set [3] (11% relative humidity, day 28), 0.0871 % w/w; in data set [3] (43% relative humidity, day 1), 0.1091 % w/w. The “water content (moisture sorption)” value is on record as 0.1406 % w/w in data set [3] (43% relative humidity, day 3); 0.0922 % w/w in data set [3] (43% relative humidity, day 8); 0.104 % w/w in data set [3] (43% relative humidity, day 14); 0.0705 % w/w in data set [3] (43% relative humidity, day 28); 0.0895 % w/w in data set [3] (75% relative humidity, day 1); 0.1367 % w/w in data set [3] (75% relative humidity, day 3). In addition, the “water content (moisture sorption)” value in data set [3] (75% relative humidity, day 8) came to 0.0732 % w/w; in data set [3] (75% relative humidity, day 14), 0.1146 % w/w; in data set [3] (75% relative humidity, day 28), 0.0691 % w/w; in data set [3] (89% relative humidity, day 1), 0.1144 % w/w; in data set [3] (89% relative humidity, day 3) it was 0.1379 % w/w; in data set [3] (89% relative humidity, day 8), 0.1104 % w/w. In addition, the “water content (moisture sorption)” value in data set [3] (89% relative humidity, day 14) is listed as 0.1097 % w/w; in data set [3] (89% relative humidity, day 28), 0.1122 % w/w; in data set [3] (93% relative humidity, day 1) it was 0.1346 % w/w; in data set [3] (93% relative humidity, day 3), 0.2077 % w/w; in data set [3] (93% relative humidity, day 8), 0.1076 % w/w; in data set [3] (93% relative humidity, day 14) it was 0.2972 % w/w. The “water content (moisture sorption)” value in data set [3] (93% relative humidity, day 28) stood at 0.1765 % w/w. In addition, in data set [3] (89% RH), the water absorbed is recorded as 0.10 to 0.13%. Besides, the “moisture sorption compared with other salts or forms (in words)” value in data set [3] (listed as L-tartrate of R,R-formoterol) is recorded as “superior to all of the salts tested”.

As to `COc1ccc(C[C@@H](C)NC[C@H](O)c2ccc(O)c(NC=O)c2)cc1` [(R,R)-Formoterol-HCl], the “water content (moisture sorption)” value was found to be 0.5735 % w/w in data set [3] (11% relative humidity, day 1); 0.553 % w/w in data set [3] (11% relative humidity, day 3); 0.3656 % w/w in data set [3] (11% relative humidity, day 8); 0.4385 % w/w in data set [3] (11% relative humidity, day 14); 0.2644 % w/w in data set [3] (11% relative humidity, day 28); 0.8502 % w/w in data set [3] (43% relative humidity, day 1). Moreover, the “water content (moisture sorption)” value in data set [3] (43% relative humidity, day 3) is listed as 1.1636 % w/w; in data set [3] (43% relative humidity, day 8), 0.8781 % w/w; in data set [3] (43% relative humidity, day 14), 0.9802 % w/w; in data set [3] (43% relative humidity, day 28) it was 0.8133 % w/w; in data set [3] (75% relative humidity, day 1) it was 1.5335 % w/w; in data set [3] (75% relative humidity, day 3) it was 1.3288 % w/w. Besides, the “water content (moisture sorption)” value in data set [3] (75% relative humidity, day 8) stood at 1.4931 % w/w; in data set [3] (75% relative humidity, day 14), 1.4585 % w/w; in data set [3] (75% relative humidity, day 28), 1.221 % w/w; in data set [3] (89% relative humidity, day 1), 1.4573 % w/w; in data set [3] (89% relative humidity, day 3) it was 2.419 % w/w; in data set [3] (89% relative humidity, day 8), 1.6487 % w/w. Moreover, the “water content (moisture sorption)” value in data set [3] (89% relative humidity, day 14) was 1.5739 % w/w; in data set [3] (89% relative humidity, day 28) it was 1.1139 % w/w. In data set [3] (75% RH), the water absorbed is recorded as 1.3-1.4%. For the same compound, in data set [3] (listed as hydrochloride), the “moisture sorption compared with other salts or forms (in words)” value was “somewhat better at 43% RE”.

In the case of `COc1ccc(C[C@@H](C)NC[C@H](O)c2ccc(O)c(NC=O)c2)cc1` [(R,R)-Formoterol-SO4], the “water content (moisture sorption)” value is 1.2251 % w/w in data set [3] (11% relative humidity, day 1); 1.3892 % w/w in data set [3] (11% relative humidity, day 3); 0.9574 % w/w in data set [3] (11% relative humidity, day 8); 1.209 % w/w in data set [3] (11% relative humidity, day 14); 0.7866 % w/w in data set [3] (11% relative humidity, day 28); 2.9647 % w/w in data set [3] (43% relative humidity, day 1). For the same compound, the “water content (moisture sorption)” value in data set [3] (43% relative humidity, day 3) turned out to be 3.4998 % w/w; in data set [3] (43% relative humidity, day 8), 3.4048 % w/w; in data set [3] (43% relative humidity, day 14), 2.2985 % w/w; in data set [3] (43% relative humidity, day 28), 3.1595 % w/w. Besides, the water absorbed result in data set [3] (43% relative humidity) is “more than 3 % by weight”.

Take `COc1ccc(C[C@H](C)NC[C@H](O)c2ccc(O)c(NC=O)c2)cc1` [(R,S), reference compound]: the order of potency entry with β-adrenoceptors is on record as “(R,R)>>(R,S)=(S,R)>(S,S)”.

`COc1ccc(C[C@@H](C)NC[C@H](O)c2ccc(O)c(NC=O)c2)cc1` [D-tartrate]: the water absorbed in data set [3] (setting [7]) is listed as 0.4-0.5%. Further, in data set [3], the “moisture sorption compared with other salts or forms (in words)” value is listed as “somewhat better than the hydrochloride”.
